Data reported in patent publication US9527847B2, “Treatment of lupus, fibrotic conditions, and inflammatory myopathies and other disorders using PI3 kinase inhibitors” (INFINITY PHARMACEUTICALS, INC., priority 2012, dated 2016).
Where “and” joins values, the source holds several entries; their conditions need not be identical. Equal entries are not always repeated.

Tests used:
[1] = system: Murine B-cell proliferation; experiment: Murine B-cell proliferation; format: cell-based; conditions: Mus musculus
mouse EAE model = experiment: Experimental Autoimmune Encephalomyelitis (EAE) model, semi-therapeutic, 28 day; format: in vivo; conditions: for End % body weight +/− SD: Day 27 relative to Day −1; for End score +/− SD: Day 28; for Mean day of EAE onset: after immunization, mice which developed EAE; for Inflammatory foci +/− SD: per spinal cord section; for Demyelination (LFB) +/− SD: score per section
Method: EAE was induced in 60 mice using Hooke Kit™ MOG35-55/CFA Emulsion PTX (Hooke Laboratories, Lawrence Mass.), catalog number EK-0110, lot number 0104, per manufacturer's recommended protocol, except that pertussis toxin was diluted with phosphate buffered saline to achieve 1.4× and 1.3× solution (starting from the 1.5× solution in the kit). This was done to optimize disease severity for this particular study.
Mice were injected subcutaneously, at two sites in the back, with the emulsion component of the kit (containing MOG35-55). One site of injection was in the area of the upper back, approximately 1 cm caudal of the neck line. The second site was in the area of the lower back, approximately 2 cm cranial of the base of the tail. Injection volume was 0.1 mL at each site. Within 2 hours of the injection of emulsion, and then again 24 hours after the injection of emulsion, the pertussis toxin component of the kit was administered intraperitoneally. Volume of each injection was 0.1 mL.
Vehicle for Group 2 (FTY720) was water and 2% ethanol. Vehicle for all other groups was water, 0.5% CMC (low viscosity), and 0.05% Tween80. Mice were dosed at the same time every day, +/−1 hour. The last day of dosing was Day 27 after immunization.
Readouts were EAE scores and changes in body weight. Mice were scored daily from Day 7 to Day 28, and body weights were measured three times/week (Monday, Wednesday and Friday), starting on Day −1.
EAE was scored on scale 0 to 5: • 0 No obvious changes in motor functions of the mouse in comparison to non-immunized mice. When picked up by the tail, the tail has tension and is erect. Hind legs are usually spread apart. When the mouse is walking, there is no gait or head tilting. • 1 Limp tail. When the mouse is picked up by the tail, instead of being erect, the whole tail drapes over finger. • 2 Limp tail and weakness of hind legs. When mouse is picked up by tail, legs are not spread apart, but held closer together. When the mouse is observed walking, it has a clearly apparent wobbly walk. • 3 Limp tail and complete paralysis of hind legs (most common); or limp tail with paralysis of one front and one hind leg; or all of: severe head tilting, walking only along the edges of the cage, pushing against the cage wall, and spinning when picked up by the tail. • 4 Limp tail, complete hind leg and partial front leg paralysis. Mouse is minimally moving around the cage but appears alert and feeding Usually, euthanasia is recommended after the mouse scores level 4 for 2 days. When the mouse is euthanized because of severe paralysis, score of 5 is entered for that mouse for the rest of the experiment. • 5 Complete hind and complete front leg paralysis, no movement around the cage; or mouse is spontaneously rolling in the cage; or mouse is found dead due to paralysis.
At the end of the study 3 luxol fast blue (LFB) stained sections and 3 H&E sections, from lumbar, thoracic, and cervical spinal cord of all mice in Groups 1, 2, 3, and 6 and the 3 naïve mice were prepared and analyzed.
Inflammatory foci were counted in each H&E stained section. Each group of approximately 20 cells was counted as one focus. Foci larger than 20 cells were counted based on an estimate of how many foci of 20 cells were present.
The demyelination score represents an estimate of demyelinated area for each section as follows. For LFB stained slides, the demyelinated area was estimated based on intensity of blue staining of myelin. For H&E stained sections, demyelinated area was estimated by looking for interruption of normal structure—pallor and vacuolation consistent with edema and demyelination, and dilated axons. • 0—no demyelination (less than 5% demyelinated area) • 1—5 to 20% demyelinated area • 2—20 to 40% demyelinated area • 3—40 to 60% demyelinated area • 4—60 to 80% demyelinated area • 5—80 to 100% demyelinated area.
The number of apoptotic cells in each of the three H&E sections was determined.

C[C@H](Nc1ncnc2[nH]cnc12)c1cc2cccc(Cl)c2c(=O)n1-c1ccccc1 [Compound 292]
EC50 [1]: 0.5 nM | Apoptotic cells, average per section+/−SD (mouse EAE model; 0.3 mg/kg QD p.o.): 1.7+/−0.9 | Demyelination score (H&E sections), average per section+/−SD (mouse EAE model; 0.3 mg/kg QD p.o.): 1.5+/−0.5 | MMS +/− SD (mouse EAE model; 0.3 mg/kg QD p.o.): 2.50+/−0.85 | Median Day of Onset (mouse EAE model; 0.3 mg/kg QD p.o.): 11.5 days | End % body weight +/− SD (mouse EAE model; 0.3 mg/kg QD p.o.): 96.1+/−11.8% | End score +/− SD (mouse EAE model; 0.3 mg/kg QD p.o.): 1.60+/−1.02 | Mean day of EAE onset (mouse EAE model; 0.3 mg/kg QD p.o.): 11.3 ± 0.4 days | Inflammatory foci +/− SD (mouse EAE model; 0.3 mg/kg QD p.o.): 2.9+/−1.5 | Demyelination (LFB) +/− SD (mouse EAE model; 0.3 mg/kg QD p.o.): 1.2+/−0.7 | MMS +/− SD (mouse EAE model; 1 mg/kg QD p.o.): 2.70+/−0.72 | Median Day of Onset (mouse EAE model; 1 mg/kg QD p.o.): 11 days and 11.0 days | End % body weight +/− SD (mouse EAE model; 1 mg/kg QD p.o.): 99.0+/−7.4% | End score +/− SD (mouse EAE model; 1 mg/kg QD p.o.): 1.40+/−0.81 | Mean day of EAE onset (mouse EAE model; 1 mg/kg QD p.o.): 12.5 ± 1.0 days | MMS +/− SD (mouse EAE model; 3 mg/kg QD p.o.): 3.40+/−0.21 | Median Day of Onset (mouse EAE model; 3 mg/kg QD p.o.): 12 days and 12.0 days | End % body weight +/− SD (mouse EAE model; 3 mg/kg QD p.o.): 87.7+/−6.4% | End score +/− SD (mouse EAE model; 3 mg/kg QD p.o.): 2.65+/−0.67 | Mean day of EAE onset (mouse EAE model; 3 mg/kg QD p.o.): 12.1 ± 0.7 days | Apoptotic cells, average per section+/−SD (mouse EAE model; 10 mg/kg QD p.o.): 2.2+/−1.0 | Demyelination score (H&E sections), average per section+/−SD (mouse EAE model; 10 mg/kg QD p.o.): 1.9+/−0.8 | MMS +/− SD (mouse EAE model; 10 mg/kg QD p.o.): 2.55+/−0.76 | Median Day of Onset (mouse EAE model; 10 mg/kg QD p.o.): 14 days and 14.0 days | End % body weight +/− SD (mouse EAE model; 10 mg/kg QD p.o.): 95.6+/−8.5% | End score +/− SD (mouse EAE model; 10 mg/kg QD p.o.): 1.65+/−0.85 | Mean day of EAE onset (mouse EAE model; 10 mg/kg QD p.o.): 14.4 ± 1.5 days | Inflammatory foci +/− SD (mouse EAE model; 10 mg/kg QD p.o.): 5.2+/−3.2 | Demyelination (LFB) +/− SD (mouse EAE model; 10 mg/kg QD p.o.): 1.6+/−0.8
